Data set [1] relates to HEK293 cells stably expressing CMKLR1-eYFP. The data set is described as follows: Live cell fluorescence microscopy of peptide internalization, cells with CMKLR1. It is filed as cell-based. To be noted: 1 μM Cy5-labeled peptide, 6 h, cells transfected with CMKLR1. As for the experimental part:
(§1) 2 Internalization of cyclic chemerin-9 conjugates. Live cell fluorescence microscopy of HEK293 and HEK293 cells stably expressed CMKLR1-eYFP. Cells were incubated with 1 μM Cy5-labeled peptide for 6 h before imaging. Blue = Hoechst33342, yellow = CMKLR1-eYFP, magenta = Cy5-peptide, scale bar ≙ 10 μm. […]
(§2) Salt Solution (HBSS, Biowest), pH 7.5) for 1 h. […]
(§3) Experiments were performed in technical duplicates and at least […]
(§4) HEK293 and HEK293_CMKLR1-eYFP cells were seeded at 15,000 cells per well into poly-ᴅ-lysine coated 96-well plates (black µCLEAR, Greiner). The next day, dilutions of the Cy5 -labeled peptides or Nutlin-3a […]
(§5) Cells were then washed and a resazurin-based cell viability […]
(§6) assay was performed. […]
(§7) Experiments […]
(§8) were performed in technical triplicates and at least twice.
(§9) Peptide internalization was evaluated by fluorescence microscopy. HEK293 and stably transfected […]
(§10) microscopy slides (ibidi). The next day, 1 µM Cy5-labeled peptides in cell culture medium were added to the cells and incubated for 6 h.
(§11) FluoroBriteTM DMEM (Gibco) with 10% FBS, 25 mM HEPES (pH 7.4) before imaging on an AxioVision Observer.Z1 microscope equipped with an apotome imaging system, an HXP120C light source, and a C-Apochromat 63x/1.20 W objective. All shown microscopy images are representative of at least two

The next data set relates to HEK293 cells. The data set is described as follows: Live cell fluorescence microscopy of peptide internalization, cells without CMKLR1. Type of data set: cell-based. The note with it: 1 μM Cy5-labeled peptide, 6 h. As for the experimental part: as §1, §2, §3, §4, §5, §6, §7, §8, §9, §10, §11
The target of data set [2] is T1, recombinant human GST-MDM2 (Homo sapiens, UniProt Q00987).
T1 construct: purchased R&D Systems
T1 sequence (Q00987 whole entry): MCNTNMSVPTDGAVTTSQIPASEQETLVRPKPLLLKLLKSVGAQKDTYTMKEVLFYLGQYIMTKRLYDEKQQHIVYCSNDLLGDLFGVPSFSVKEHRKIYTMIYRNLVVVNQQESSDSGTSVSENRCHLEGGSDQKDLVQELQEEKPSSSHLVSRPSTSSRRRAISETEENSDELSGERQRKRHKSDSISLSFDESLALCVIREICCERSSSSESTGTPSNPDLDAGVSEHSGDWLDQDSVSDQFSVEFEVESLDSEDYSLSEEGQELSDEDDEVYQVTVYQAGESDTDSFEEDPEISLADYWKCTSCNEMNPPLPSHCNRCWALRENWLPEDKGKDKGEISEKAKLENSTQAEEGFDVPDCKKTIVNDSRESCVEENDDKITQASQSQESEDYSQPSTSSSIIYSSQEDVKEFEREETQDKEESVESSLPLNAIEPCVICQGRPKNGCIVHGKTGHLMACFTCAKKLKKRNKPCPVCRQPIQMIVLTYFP
The data set is described as follows: Fluorescence polarization binding of Cy5-labeled peptides to MDM2. The note with it: 20 nM Cy5-labeled peptide, FP buffer pH 7.4, 30 min room temperature; performed twice in technical triplicates.
Description: (B) Fluorescence polarization measurement of 20 nM Cy5-labeled peptides binding to recombinant human GST-MDM2.
20 nM of Cy5-labeled peptides were added to dilutions of human MDM2 (Recombinant Human GST -
MDM2/HDM2, R&D Systems) in FP buffer (50 mM tris(hydroxymethyl)aminomethane (Tris, Carl Roth),
150 mM sodium chloride (Sigma), 1 mM EDTA (Sigma), 0.01% (v/v) Tween20 (Sigma), pH 7.4) and
incubated for 30 min at room temperature. Fluorescence polarization was then measured in a Tecan
Spark plate reader (λex = 640 nm, λem = 670 nm). Measurements were performed twice in technical
triplicates. Data was then fit with Prism 10 (GraphPad) using non-linear regression with the following
solution to the quadratic binding equation 1 to obtain Kd:
𝐹𝑃 = 𝐹𝑃 + (𝐹𝑃 − 𝐹𝑃 ) ∗ 𝑐 + 𝑐 + 𝐾 − 𝑝𝑒𝑝𝑡𝑖𝑑𝑒 𝑀𝐷𝑀2 𝑑 𝑝𝑒𝑝𝑡𝑖𝑑𝑒 𝑀𝐷𝑀2

The target of the next data set is T2, CMKLR1 (Homo sapiens, UniProt Q99788).
T2 construct: expressed in transfected cells; host or cells: COS-7 (stably transfected, CMKLR1-eYFP + Δ6Gαqi4myr)
T2 sequence (Q99788 1-373): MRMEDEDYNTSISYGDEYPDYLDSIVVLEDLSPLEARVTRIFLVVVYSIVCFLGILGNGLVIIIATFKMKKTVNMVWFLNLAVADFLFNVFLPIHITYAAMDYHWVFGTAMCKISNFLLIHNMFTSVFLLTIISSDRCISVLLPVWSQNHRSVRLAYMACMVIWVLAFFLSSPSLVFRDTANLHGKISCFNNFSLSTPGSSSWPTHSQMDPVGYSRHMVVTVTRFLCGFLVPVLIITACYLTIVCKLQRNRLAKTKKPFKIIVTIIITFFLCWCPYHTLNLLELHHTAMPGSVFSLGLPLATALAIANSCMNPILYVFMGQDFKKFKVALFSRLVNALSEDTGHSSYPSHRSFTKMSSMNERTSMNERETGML
The data set is described as follows: Ca2+ flux assay in COS-7_CMKLR1-eYFP_Δ6Gαqi4myr cells. It is filed as cell-based. To be noted: maximum signal over baseline normalized to peptide 1, at least two independent experiments in duplicate.

Data set [3] concerns HEK293_CMKLR1-eYFP, HMEC-1, MDA-MB-231 and THP-1 cells. The data set is described as follows: Quantification of total cellular peptide uptake in cell lysate. It is filed as cell-based. The note with it: 1 µM peptide, 72 h, fluorescence in lysate, all cell lines; performed thrice. The method, then: page 7: Quantification of total cellular peptide uptake of different cell lines MDA-MB-231 cells and stably transfected HEK293_CMKLR1-eYFP cells were seeded at 165,000 cells per well and HMEC-1 cells at 55,000 cells per well into poly-ᴅ-lysine coated 12-well plates in their respective cell culture medium. […] the cells and incubated for 72 h. Cells were then washed with PBS and detached with trypsin/EDTA. […] Suspended cells were washed thrice with Fluorobrite DMEMTM and collected by centrifugation at 500 g for 5 min after each step. Finally, cells were resuspended in […] Fluorobrite DMEMTM and cell density was determined with an automated cell counter (Cell Drop, DeNovix). Cell suspensions were then lysed by ultrasonic homogenization (U[…], Hielscher) for 2 × 10 s on ice to prevent self-quenching of Cy5 due to high local concentrations in vesicles. […] Quantification of receptor-mediated uptake in CMKLR1-expressing cell lines. (A) Cell-surface enzyme-linked immunosorbent assay (ELISA) for the quantification of CMKLR1 expression of different cell lines. […] For quantification, cells were detached, counted, lysed by ultrasonic homogenization, and fluorescence was measured in the lysate. Total peptide uptake per cell was calculated from a dilution series of Cy5-labeled peptide with known concentration. […]

Like-named read-outs stand apart in the source and are kept apart here. Where a SMILES comes first, the peptide text is derived from it. Bridges are numbered along the chain shown (N, C = ends). Roman numbers before positions name the chains, in order. Triazole bridges read from a SMILES are 1,4-linked. Where no end group is shown, it is not given here. Side-chain parts run from the residue outwards. [ ]: non-standard residue; d: D form. The star is where a group is joined. X2 = CN1C(=C/C=C/C=C/C2=[N+](CCCCCC(=O)*)c3ccc(S(=O)(=O)[O-])cc3C2(C)C)C(C)(C)c2cc(S(=O)(=O)O)ccc21; X1 = CN1C(=CC=CC=CC2=[N+](CCCCCC(=O)*)c3ccc(S(=O)(=O)[O-])cc3C2(C)C)C(C)(C)c2cc(S(=O)(=O)O)ccc21; Lys(N3) = [N-]=[N+]=NCCCC[C@H](N)C(=O)O; Cit = NC(=O)NCCC[C@H](N)C(=O)O; d(hCys) = N[C@H](CCS)C(=O)O; PEG3 = NCCOCCOCCOCCC(=O)O; Pra = C#CC[C@H](N)C(=O)O

On to `CC(=O)N[C@@H](CCCCn1cc(C[C@H](NC(=O)CCOCCOCCOCCNC(=O)[C@H](CCCNC(N)=O)NC(=O)[C@@H](NC(=O)[C@H](CCC(=O)O)NC(=O)CNC(=O)CNC(=O)[C@@H](CCCNC(=N)N)NC(=O)[C@@H](CC(C)C)NC(=O)[C@@H](CC(C)C)NC(=O)[C@@H](C)NC(=O)[C@@H](CCC(=O)O)NC(=O)[C@@H](Cc2ccccc2)NC(=O)[C@@H](C)NC(=O)[C@@H](CC(C)C)NC(=O)[C@H]2CCCN2C(=O)[C@@H](Cc2c[nH]c3ccccc23)NC(=O)[C@@H](Cc2c[nH]c3ccccc23)NC(=O)[C@@H](CC(=O)O)NC(=O)CCOCCOCCOCCNC(=O)CCCCC[N+]2=C(/C=C/C=C/C=C3N(C)c4ccc(S(=O)(=O)O)cc4C3(C)C)C(C)(C)c3cc(S(=O)(=O)[O-])ccc32)C(C)C)C(N)=O)nn1)C(=O)N[C@@H](Cc1ccc(O)cc1)C(=O)N[C@@H](Cc1ccccc1)C(=O)N1CCC[C@H]1C(=O)N[C@@H]1CCSSC[C@@H](C(=O)O)NC(=O)[C@H](Cc2ccccc2)NC(=O)[C@H](C)NC(=O)[C@H](Cc2ccccc2)NC(=O)[C@H](CCC(N)=O)NC1=O` [2Cy] (I: {X2-PEG3}-[dD][dW][dW][dP][dL][dA][dF][dE][dA][dL][dL][dR]GGEV[Cit][PEG3][Pra]-NH2 / II: Ac-[Lys(N3)]YFP[d(hCys)]QFAFC-OH; triazole I:19-II:1; disulfide II:5-II:10), for which the internalization entry in data set [1] was “internalized efficiently”; with HEK293 cells, “did not internalize”.
As to “I: GSVSHHHHHHGGHHHH[PEG3][dK]([PEG3-X1])[dD][dW][dW][dP][dL][dA][dF][dE][dA][dL][dL][dR]GEV[Cit][PEG3][Pra]-NH2 / II: Ac-[Lys(N3)]YFP[d(hCys)]QFAFC-OH (triazole I:36-II:1; disulfide II:5-II:10) [3Cy]”, the internalization result is on record as “internalized efficiently” in data set [1] and “very faint intracellular signals” in the data set with HEK293 cells. In addition, in data set [2], the Kd was 90 nM. In addition, the EC50 is 220 nM on CMKLR1 (read-out: EC50) and 219 nM at CMKLR1 (read-out: pEC50 ± SEM (converted)). Also, in data set [3], the “total peptide uptake per cell” value is “uptake slightly higher than that of 2Cy”.
